# Legend:
# Conditions in all cases: 1 mM ATP; inhibitor
# [1] = molecular target: PRKG1 (Homo sapiens, UniProt Q13976)
# Method: (§1) Kinase selectivity panel Kinome profiling was conducted by AssayQuant Technologies (Marlboro, MA) using Sox chromophore technology and Sox-based peptide substrates developed for human kinases in a 384-well format. Compounds were tested at 1 µM in the presence of 1 mM ATP.
# [2] = molecular target: MAP4K1/HPK1 (Homo sapiens, UniProt Q92918)
# Method: as §1
# [3] = molecular target: CSNK1G1/CK1G1 (Homo sapiens, UniProt Q9HCP0)
# Method: as §1
# [4] = molecular target: MAPK1/ERK2 (Homo sapiens, UniProt P28482)
# Method: as §1
# [5] = molecular target: T1, CSNK1AL/CK1A2 (Homo sapiens, UniProt Q8N752)
# T1 construct: gene CSNK1A1L
# Method: as §1
# [6] = molecular target: TTBK2 (Homo sapiens, UniProt Q6IQ55)
# Method: as §1
# [7] = molecular target: MAPK10/JNK3 (Homo sapiens, UniProt P53779)
# Method: as §1
# [8] = molecular target: FGFR3 (Homo sapiens, UniProt P22607)
# Method: as §1
# [9] = molecular target: NTRK2/TRKB (Homo sapiens, UniProt Q16620)
# Method: as §1
# [10] = molecular target: MAPK15/ERK7 (Homo sapiens, UniProt Q8TD08)
# Method: as §1
# [11] = molecular target: MYLK4 (Homo sapiens, UniProt Q86YV6)
# Method: as §1
# [12] = molecular target: SRMS (Homo sapiens, UniProt Q9H3Y6)
# Method: as §1
# [13] = molecular target: MAP3K8 (Homo sapiens, UniProt P41279)
# Method: as §1
# [14] = molecular target: CDK3/E1 (Homo sapiens, UniProt Q00526)
# Method: as §1
# [15] = molecular target: CDK14 (Homo sapiens, UniProt O94921)
# Method: as §1
# [16] = molecular target: PRKCD/CPKCD (Homo sapiens, UniProt Q05655)
# Method: as §1
# [17] = molecular target: CDC42BPA/MRCKA (Homo sapiens, UniProt Q5VT25)
# Method: as §1
# [18] = molecular target: DAPK3 (Homo sapiens, UniProt O43293)
# Method: as §1
# [19] = molecular target: IGF1R (Homo sapiens, UniProt P08069)
# Method: as §1
# [20] = molecular target: T2, ROS (Homo sapiens, UniProt P08922)
# T2 construct: gene ROS1
# Method: as §1
# [21] = molecular target: GRK5 (Homo sapiens, UniProt P34947)
# Method: as §1
# [22] = molecular target: CDK5/P25 (Homo sapiens, UniProt Q00535)
# Method: as §1
# [23] = molecular target: JAK1(JH1) (Homo sapiens, UniProt P23458)
# Method: as §1
# [24] = molecular target: EGFR (Homo sapiens, UniProt P00533)
# Method: as §1
# [25] = molecular target: T3, DRAK1 (Homo sapiens, UniProt Q9UEE5)
# T3 construct: gene STK17A
# Method: as §1
# [26] = molecular target: TTK (Homo sapiens, UniProt P33981)
# Method: as §1
# [27] = molecular target: AURKB/AURB (Homo sapiens, UniProt Q96GD4)
# Method: as §1
# [28] = molecular target: T4, TSSK1 (Homo sapiens, UniProt Q9BXA7)
# T4 construct: gene TSSK1B
# Method: as §1
# [29] = molecular target: NTRK3/TRKC (Homo sapiens, UniProt Q16288)
# Method: as §1
# [30] = molecular target: MAPKAPK3/MK3 (Homo sapiens, UniProt Q16644)
# Method: as §1
# [31] = molecular target: PDGFRB (Homo sapiens, UniProt P09619)
# Method: as §1
# [32] = molecular target: PRKD2 (Homo sapiens, UniProt Q9BZL6)
# Method: as §1
# [33] = molecular target: T5, MNK2 (Homo sapiens, UniProt Q9HBH9)
# T5 construct: gene MKNK2
# Method: as §1
# [34] = molecular target: HASPIN (Homo sapiens, UniProt Q8TF76)
# Method: as §1
# [35] = molecular target: HIPK4 (Homo sapiens, UniProt Q8NE63)
# Method: as §1
# [36] = molecular target: EPHA8 (Homo sapiens, UniProt P29322)
# Method: as §1
# [37] = molecular target: LATS2 (Homo sapiens, UniProt Q9NRM7)
# Method: as §1
# [38] = molecular target: KSR1 (Homo sapiens, UniProt Q8IVT5)
# Method: as §1
# Sequence of MAPK15/ERK7 (Q8TD08 whole entry): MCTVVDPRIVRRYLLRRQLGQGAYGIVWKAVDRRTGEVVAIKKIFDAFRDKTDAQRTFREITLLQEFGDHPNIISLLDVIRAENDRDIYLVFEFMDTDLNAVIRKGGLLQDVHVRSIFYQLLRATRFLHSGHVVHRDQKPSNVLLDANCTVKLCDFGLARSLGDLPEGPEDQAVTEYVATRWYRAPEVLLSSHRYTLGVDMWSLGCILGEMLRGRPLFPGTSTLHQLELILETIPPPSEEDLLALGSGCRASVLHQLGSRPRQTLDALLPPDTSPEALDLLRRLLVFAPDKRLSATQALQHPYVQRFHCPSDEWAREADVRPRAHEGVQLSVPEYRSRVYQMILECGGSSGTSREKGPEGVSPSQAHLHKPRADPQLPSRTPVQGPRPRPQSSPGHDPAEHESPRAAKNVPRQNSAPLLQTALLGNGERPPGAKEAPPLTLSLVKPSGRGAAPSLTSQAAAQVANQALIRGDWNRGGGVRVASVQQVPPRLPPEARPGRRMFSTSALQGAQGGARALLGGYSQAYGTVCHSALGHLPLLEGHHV
# Sequence of MAPKAPK3/MK3 (Q16644 whole entry): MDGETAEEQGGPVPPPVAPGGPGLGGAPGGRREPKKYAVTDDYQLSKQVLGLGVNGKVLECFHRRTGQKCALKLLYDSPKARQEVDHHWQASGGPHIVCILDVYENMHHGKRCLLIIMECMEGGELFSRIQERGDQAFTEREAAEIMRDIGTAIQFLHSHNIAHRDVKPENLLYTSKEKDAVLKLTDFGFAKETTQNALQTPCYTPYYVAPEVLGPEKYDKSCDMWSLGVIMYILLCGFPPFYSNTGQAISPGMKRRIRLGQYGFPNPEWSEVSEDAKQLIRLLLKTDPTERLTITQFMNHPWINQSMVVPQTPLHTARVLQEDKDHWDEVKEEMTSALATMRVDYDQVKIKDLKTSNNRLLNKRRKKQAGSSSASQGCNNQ
# Sequence of NTRK3/TRKC (Q16288 whole entry): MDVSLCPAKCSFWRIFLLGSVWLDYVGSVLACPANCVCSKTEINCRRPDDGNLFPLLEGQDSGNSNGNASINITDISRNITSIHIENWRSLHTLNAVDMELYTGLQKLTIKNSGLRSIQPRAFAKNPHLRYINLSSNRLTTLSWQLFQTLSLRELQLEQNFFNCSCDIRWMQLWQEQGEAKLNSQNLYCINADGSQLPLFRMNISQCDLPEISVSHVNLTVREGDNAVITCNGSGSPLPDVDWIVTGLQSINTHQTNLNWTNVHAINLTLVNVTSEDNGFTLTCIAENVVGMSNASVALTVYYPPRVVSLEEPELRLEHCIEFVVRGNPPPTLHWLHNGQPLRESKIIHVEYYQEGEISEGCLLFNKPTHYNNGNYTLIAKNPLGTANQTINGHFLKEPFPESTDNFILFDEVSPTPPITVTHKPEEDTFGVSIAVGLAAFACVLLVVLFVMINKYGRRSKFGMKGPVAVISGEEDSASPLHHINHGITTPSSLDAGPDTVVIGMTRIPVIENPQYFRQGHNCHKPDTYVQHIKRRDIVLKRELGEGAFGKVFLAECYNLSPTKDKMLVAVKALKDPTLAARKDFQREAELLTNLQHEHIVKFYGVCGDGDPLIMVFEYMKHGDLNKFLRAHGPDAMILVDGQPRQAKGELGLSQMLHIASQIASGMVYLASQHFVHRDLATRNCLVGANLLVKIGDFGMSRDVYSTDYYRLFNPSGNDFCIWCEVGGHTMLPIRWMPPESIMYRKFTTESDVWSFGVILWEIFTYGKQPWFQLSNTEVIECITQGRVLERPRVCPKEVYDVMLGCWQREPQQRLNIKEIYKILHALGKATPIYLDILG
# Sequence of MAPK10/JNK3 (P53779 whole entry): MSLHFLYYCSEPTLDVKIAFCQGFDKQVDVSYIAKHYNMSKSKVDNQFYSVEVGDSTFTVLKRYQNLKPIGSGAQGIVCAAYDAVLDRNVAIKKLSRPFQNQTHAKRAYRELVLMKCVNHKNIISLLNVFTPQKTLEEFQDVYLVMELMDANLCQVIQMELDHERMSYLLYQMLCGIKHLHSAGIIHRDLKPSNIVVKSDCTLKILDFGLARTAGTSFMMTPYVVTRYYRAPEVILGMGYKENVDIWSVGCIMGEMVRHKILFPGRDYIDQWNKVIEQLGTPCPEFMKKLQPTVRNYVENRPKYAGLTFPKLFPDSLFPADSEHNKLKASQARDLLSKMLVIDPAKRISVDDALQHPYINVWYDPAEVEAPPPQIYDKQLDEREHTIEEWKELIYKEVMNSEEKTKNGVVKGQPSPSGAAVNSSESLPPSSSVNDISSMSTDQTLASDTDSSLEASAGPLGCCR
# T3 sequence (Q9UEE5 whole entry): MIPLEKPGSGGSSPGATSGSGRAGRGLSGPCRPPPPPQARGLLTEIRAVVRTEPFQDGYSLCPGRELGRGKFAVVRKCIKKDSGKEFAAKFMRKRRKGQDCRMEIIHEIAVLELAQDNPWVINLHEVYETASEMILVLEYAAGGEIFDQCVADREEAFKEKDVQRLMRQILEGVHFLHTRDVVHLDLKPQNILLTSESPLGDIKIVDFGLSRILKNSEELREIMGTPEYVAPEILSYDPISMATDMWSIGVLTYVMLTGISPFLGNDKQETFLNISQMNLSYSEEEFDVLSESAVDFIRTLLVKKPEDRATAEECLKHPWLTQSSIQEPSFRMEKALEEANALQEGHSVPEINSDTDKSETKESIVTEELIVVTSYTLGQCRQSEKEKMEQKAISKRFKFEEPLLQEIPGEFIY
# Sequence of KSR1 (Q8IVT5 whole entry): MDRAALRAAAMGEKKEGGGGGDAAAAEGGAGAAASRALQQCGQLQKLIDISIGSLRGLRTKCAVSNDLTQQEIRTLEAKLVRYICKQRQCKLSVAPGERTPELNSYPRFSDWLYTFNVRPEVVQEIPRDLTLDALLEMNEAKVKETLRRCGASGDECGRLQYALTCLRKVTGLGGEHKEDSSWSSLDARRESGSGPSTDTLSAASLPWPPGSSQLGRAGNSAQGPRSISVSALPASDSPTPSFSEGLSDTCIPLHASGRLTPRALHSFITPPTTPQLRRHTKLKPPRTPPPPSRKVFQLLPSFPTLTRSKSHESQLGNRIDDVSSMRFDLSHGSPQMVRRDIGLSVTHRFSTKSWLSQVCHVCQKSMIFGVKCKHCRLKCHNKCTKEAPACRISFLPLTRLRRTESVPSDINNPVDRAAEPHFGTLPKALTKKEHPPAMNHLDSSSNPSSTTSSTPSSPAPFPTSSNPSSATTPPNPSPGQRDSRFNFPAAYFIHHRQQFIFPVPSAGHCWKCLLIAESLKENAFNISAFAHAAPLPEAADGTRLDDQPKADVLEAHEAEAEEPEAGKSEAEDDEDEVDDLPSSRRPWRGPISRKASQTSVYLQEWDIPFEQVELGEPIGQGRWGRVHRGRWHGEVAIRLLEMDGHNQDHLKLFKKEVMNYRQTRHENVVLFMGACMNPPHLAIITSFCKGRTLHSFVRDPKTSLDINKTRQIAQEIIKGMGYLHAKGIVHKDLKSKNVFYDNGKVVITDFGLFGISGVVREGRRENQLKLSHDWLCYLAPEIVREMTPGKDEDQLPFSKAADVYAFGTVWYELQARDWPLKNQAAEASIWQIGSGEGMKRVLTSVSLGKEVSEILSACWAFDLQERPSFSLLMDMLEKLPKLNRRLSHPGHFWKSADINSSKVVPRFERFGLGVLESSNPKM
# Sequence of PDGFRB (P09619 whole entry): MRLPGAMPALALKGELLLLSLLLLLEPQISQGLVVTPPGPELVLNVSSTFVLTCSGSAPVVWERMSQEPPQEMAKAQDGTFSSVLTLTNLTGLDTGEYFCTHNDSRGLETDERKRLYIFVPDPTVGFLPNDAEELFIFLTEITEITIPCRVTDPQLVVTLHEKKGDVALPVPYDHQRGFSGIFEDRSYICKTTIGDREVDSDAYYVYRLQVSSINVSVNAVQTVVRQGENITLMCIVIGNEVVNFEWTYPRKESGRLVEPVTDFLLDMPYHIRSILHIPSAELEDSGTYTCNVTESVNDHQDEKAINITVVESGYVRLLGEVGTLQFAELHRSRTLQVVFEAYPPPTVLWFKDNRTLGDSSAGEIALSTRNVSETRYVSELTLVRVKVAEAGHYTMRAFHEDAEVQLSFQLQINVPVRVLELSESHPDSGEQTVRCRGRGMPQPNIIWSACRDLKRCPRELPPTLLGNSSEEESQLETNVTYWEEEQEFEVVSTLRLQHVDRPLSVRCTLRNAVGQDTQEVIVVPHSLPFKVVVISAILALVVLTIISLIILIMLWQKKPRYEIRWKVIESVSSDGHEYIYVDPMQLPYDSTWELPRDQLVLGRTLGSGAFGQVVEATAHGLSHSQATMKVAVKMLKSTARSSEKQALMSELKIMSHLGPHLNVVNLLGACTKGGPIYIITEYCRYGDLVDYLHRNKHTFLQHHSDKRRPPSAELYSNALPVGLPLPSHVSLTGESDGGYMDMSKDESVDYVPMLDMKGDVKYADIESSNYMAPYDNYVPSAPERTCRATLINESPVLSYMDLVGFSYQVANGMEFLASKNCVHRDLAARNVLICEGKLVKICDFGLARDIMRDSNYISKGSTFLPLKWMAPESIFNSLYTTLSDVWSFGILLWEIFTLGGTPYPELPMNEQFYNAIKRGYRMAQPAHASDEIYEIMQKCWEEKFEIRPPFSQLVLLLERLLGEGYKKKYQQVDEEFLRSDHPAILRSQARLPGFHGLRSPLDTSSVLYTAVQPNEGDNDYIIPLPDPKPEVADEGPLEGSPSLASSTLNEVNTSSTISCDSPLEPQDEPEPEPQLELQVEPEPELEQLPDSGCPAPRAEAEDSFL
# Sequence of MAPK1/ERK2 (P28482 whole entry): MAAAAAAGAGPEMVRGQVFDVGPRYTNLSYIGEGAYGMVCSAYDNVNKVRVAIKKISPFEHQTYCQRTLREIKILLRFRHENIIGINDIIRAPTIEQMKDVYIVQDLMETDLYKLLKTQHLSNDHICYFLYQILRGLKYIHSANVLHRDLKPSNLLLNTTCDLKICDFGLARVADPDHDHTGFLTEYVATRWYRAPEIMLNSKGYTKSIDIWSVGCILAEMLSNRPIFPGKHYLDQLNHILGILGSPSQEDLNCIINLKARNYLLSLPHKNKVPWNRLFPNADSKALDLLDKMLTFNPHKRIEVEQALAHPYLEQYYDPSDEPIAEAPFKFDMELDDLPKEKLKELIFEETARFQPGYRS
structure (smiles),measurement,setting,value
C=CC(=O)N1CCC[C@@H](n2nc(-c3ccc(Oc4ccccc4)cc3)c3c(N)ncnc32)C1 [Ibrutinib],"1 µM GBD00276 (ibrutinib), % inhibition",[1],-6.849%
same,"1 µM GBD00276 (ibrutinib), % inhibition",[2],8.34%
same,"1 µM GBD00276 (ibrutinib), % inhibition",[3],4.449%
same,"1 µM GBD00276 (ibrutinib), % inhibition",[4],-5.335%
same,"1 µM GBD00276 (ibrutinib), % inhibition",[5],14.53%
same,"1 µM GBD00276 (ibrutinib), % inhibition",[6],6.635%
same,"1 µM GBD00276 (ibrutinib), % inhibition",[7],-5.63%
same,"1 µM GBD00276 (ibrutinib), % inhibition",[8],31.81%
same,"1 µM GBD00276 (ibrutinib), % inhibition",[9],21.53%
same,"1 µM GBD00276 (ibrutinib), % inhibition",[10],-6.367%
same,"1 µM GBD00276 (ibrutinib), % inhibition",[11],6.189%
same,"1 µM GBD00276 (ibrutinib), % inhibition",[12],81.42%
same,"1 µM GBD00276 (ibrutinib), % inhibition",[13],-11.27%
same,"1 µM GBD00276 (ibrutinib), % inhibition",[14],0.5426%
same,"1 µM GBD00276 (ibrutinib), % inhibition",[15],3.829%
same,"1 µM GBD00276 (ibrutinib), % inhibition",[16],-43.15%
same,"1 µM GBD00276 (ibrutinib), % inhibition",[17],-8.638%
same,"1 µM GBD00276 (ibrutinib), % inhibition",[18],-3.598%
same,"1 µM GBD00276 (ibrutinib), % inhibition",[19],1.391%
same,"1 µM GBD00276 (ibrutinib), % inhibition",[20],2.485%
same,"1 µM GBD00276 (ibrutinib), % inhibition",[21],-10.93%
same,"1 µM GBD00276 (ibrutinib), % inhibition",[22],18.4%
same,"1 µM GBD00276 (ibrutinib), % inhibition",[23],19.49%
same,"1 µM GBD00276 (ibrutinib), % inhibition",[24],96.63%
same,"1 µM GBD00276 (ibrutinib), % inhibition",[25],18.73%
same,"1 µM GBD00276 (ibrutinib), % inhibition",[26],9.751%
same,"1 µM GBD00276 (ibrutinib), % inhibition",[27],7.598%
same,"1 µM GBD00276 (ibrutinib), % inhibition",[28],5.621%
same,"1 µM GBD00276 (ibrutinib), % inhibition",[29],9.419%
same,"1 µM GBD00276 (ibrutinib), % inhibition",[30],9.483%
same,"1 µM GBD00276 (ibrutinib), % inhibition",[31],19.79%
same,"1 µM GBD00276 (ibrutinib), % inhibition",[32],-18.67%
same,"1 µM GBD00276 (ibrutinib), % inhibition",[33],-1.826%
same,"1 µM GBD00276 (ibrutinib), % inhibition",[34],7.214%
same,"1 µM GBD00276 (ibrutinib), % inhibition",[35],3.287%
same,"1 µM GBD00276 (ibrutinib), % inhibition",[36],15.21%
same,"1 µM GBD00276 (ibrutinib), % inhibition",[37],10.92%
same,"1 µM GBD00276 (ibrutinib), % inhibition",[38],8.4%

# Reference: paper PMC10337138 (Acta Neuropathologica Communications, 2023)
